{"source": "patent US20170112714A1", "about": "“METHOD FOR ALLEVIATING OR TREATING ANAPHYLAXIS” (Korea Bio Medical Science Institute, priority 2015, published 2017)", "type_in_all_cases": "in vivo", "key": {"mice": {"system": "mice", "assay": "Compound 48/80-induced systemic anaphylaxis, mortality", "conditions": "ketotifen orally 1 mg/kg 1 h before compound 48/80 (6.5 mg/kg i.p.); vs compound 48/80 alone, p<0.01", "description": "The original stock of male ICR (4 weeks old) was purchased from the Dae-Han Experimental Animal Center (Eumsung, Chungbuk, Republic of Korea). Animal care and experimental procedures used were approved by the Animal Care Committee of Kyung Hee University [KHUASP (SE)-12-019].\n(§1) Mice were given an intraperitoneal (i.p.) injection of compound 48/80 (6.5 mg/kg). The period used to observe mortality was based on the results of a pretest during which mice died within 30 min of administration. […] Mortality was monitored for 40 min post-injection. […] Three independent experiments were performed (n=15/group).\nJajinmori-jangdan and Hwimori-jangdan (rhythmic cycles) of Buk music were played by Kyung-Ja Ko. The playing conditions were as follows: Jajinmori-jangdan rhythmic cycle of twelve beats, […] (12/8 metre, ? =96 to 144), in an allegro moderated tempo and Hwimori-jangdan rhythmic cycle of 4 beats, 2+2 (4/4 metre, ? =208 to 230), in a presto tempo. The sound of a Buk is a match for the frequency of a baritone voice (139.9 to 355.2 Hz). […] Mice were exposed to Buk music or white noise for 5 min. All experiments were carried out in an environment free of other sounds. Buk music was recorded and copied using a MP3 player to ensure precisely the same music was played for mice in all treatment groups."}, "HIF-1α": {"system": "HIF-1α", "assay": "HIF-1α protein levels in brain by Western blotting", "conditions": "oral ketotifen in compound 48/80 mice, p<0.05; FIG. 3 (protein and mRNA)", "description": "as §1\nWestern blot analysis was performed on brain tissue extracts, as previously described in (Semenza GL: Hypoxia-inducible factor 1: oxygen homeostasis and disease pathophysiology. Trends Mol Med 2001; 7:345-350)."}, "ER-β mRNA": {"system": "ER-β mRNA", "assay": "ER-β mRNA levels in brain by quantitative real-time PCR", "conditions": "ketotifen in compound 48/80 administered mice, p<0.05"}, "VEGF mRNA": {"system": "VEGF mRNA", "assay": "VEGF mRNA levels in brain by quantitative real-time PCR", "conditions": "ketotifen in compound 48/80 mice, p<0.05", "description": "as §1\nQuantitative real-time PCR was performed using SYBR Green master mix and mRNA levels were analyzed using an ABI StepOne real time PCR System (Applied Biosystems, Foster City, Calif., USA). Primer sequences for the reference gene GAPDH and genes of interest were as follows: GAPDH (5′ […] 3′, SEQ ID NO.1; 5′ […] 3′, SEQ ID NO.2); HIF-1α (5′ […] 3′, SEQ ID NO.3; 5′ […] 3′, SEQ ID NO.4); VEGF (5′ […] 3′, SEQ ID NO.5; 5′ […] 3′, SEQ ID NO.6). Typical profile times used were as follows; initial step 95° C. for 10 min followed by a second step at 95° C. for 15 s and 60° C. for 30 s for 40 cycles. Levels of target mRNAs were normalized versus GAPDH. Data were analyzed using the ΔΔCT method."}, "TNF-α": {"system": "TNF-α", "assay": "TNF-α protein levels in brain by ELISA", "conditions": "ketotifen in compound 48/80 mice", "description": "as §1\nCytokines levels in serum and brain were analyzed by ELISA, as described previously. Cytokine levels in brain were divided according to the total protein levels, which were estimated using a BCA protein assay kit (Pierce, Rockford, Ill., USA)."}}, "data": [{"smiles": "CN1CCC(=C2c3ccccc3CC(=O)c3sccc32)CC1", "note": "[ketotifen]", "values": [{"measurement": "mortality induced by compound 48/80", "setting": "mice", "value": "reduced mortality"}, {"measurement": "HIF-1α levels in brain", "setting": "HIF-1α", "value": "significantly reduced"}, {"measurement": "ER-β mRNA levels in brain", "setting": "ER-β mRNA", "value": "significantly increased"}, {"measurement": "brain VEGF mRNA levels", "setting": "VEGF mRNA", "value": "significantly reduced"}, {"measurement": "TNF-α protein levels in brain", "setting": "TNF-α", "value": "significantly reduced"}]}]}
